± gives the expanded uncertainty stated by the source.
Assay: xn = mol fraction of the nth substance listed
Settings: 101 kPa, Liquid; for viscosity: Capillary tube (Ostwald / Ubbelohde) method; for speed of sound: Linear variable-path acoustic interferometer; for mass density: Pycnometric method

C=C(C)C(=O)OC [methyl methacrylate] + CC(=O)N(C)C
Settings | mass density [kg/m3] | speed of sound [m/s] | viscosity [mPa·s]
288.15 K, x1 = 0.0714 | 946.01 ± 0.27 | 1484.2 ± 1.6 | 1.103 ± 0.0091
288.15 K, x1 = 0.144 | 946.49 ± 0.27 | 1468.6 ± 1.6 | 1.057 ± 0.0087
288.15 K, x1 = 0.2125 | 946.92 ± 0.27 | 1452.9 ± 1.6 | 1.016 ± 0.0084
288.15 K, x1 = 0.2823 | 947.31 ± 0.27 | 1435.8 ± 1.6 | 0.9751 ± 0.0081
288.15 K, x1 = 0.3568 | 947.69 ± 0.27 | 1416.2 ± 1.6 | 0.9339 ± 0.0078
288.15 K, x1 = 0.4318 | 948.02 ± 0.27 | 1394.9 ± 1.5 | 0.8939 ± 0.0075
288.15 K, x1 = 0.5046 | 948.31 ± 0.26 | 1372.8 ± 1.5 | 0.856 ± 0.0072
288.15 K, x1 = 0.5769 | 948.54 ± 0.26 | 1349.9 ± 1.5 | 0.8196 ± 0.007
288.15 K, x1 = 0.6512 | 948.73 ± 0.26 | 1325.5 ± 1.5 | 0.7835 ± 0.0067
288.15 K, x1 = 0.7205 | 948.88 ± 0.26 | 1302.7 ± 1.5 | 0.7513 ± 0.0064
288.15 K, x1 = 0.7845 | 948.97 ± 0.26 | 1282.2 ± 1.4 | 0.7228 ± 0.0062
288.15 K, x1 = 0.8558 | 949.03 ± 0.26 | 1259.7 ± 1.4 | 0.6927 ± 0.006
288.15 K, x1 = 0.9281 | 949.07 ± 0.26 | 1237.5 ± 1.4 | 0.6628 ± 0.0058
288.15 K, x1 = 1 | 949.1 ± 0.26 | 1216.8 ± 1.4 | 0.634 ± 0.0056
293.15 K, x1 = 0.0714 | 941.45 ± 0.26 | 1467.3 ± 1.6 | 0.9972 ± 0.0083
293.15 K, x1 = 0.144 | 941.87 ± 0.26 | 1452.1 ± 1.6 | 0.957 ± 0.008
293.15 K, x1 = 0.2125 | 942.23 ± 0.26 | 1436.6 ± 1.6 | 0.9207 ± 0.0077
293.15 K, x1 = 0.2823 | 942.55 ± 0.26 | 1419.2 ± 1.6 | 0.8852 ± 0.0075
293.15 K, x1 = 0.3568 | 942.84 ± 0.25 | 1399.5 ± 1.5 | 0.8487 ± 0.0072
293.15 K, x1 = 0.4318 | 943.08 ± 0.25 | 1378.3 ± 1.5 | 0.8137 ± 0.0069
293.15 K, x1 = 0.5046 | 943.28 ± 0.25 | 1356.3 ± 1.5 | 0.7808 ± 0.0067
293.15 K, x1 = 0.5769 | 943.43 ± 0.25 | 1333.1 ± 1.5 | 0.7494 ± 0.0064
293.15 K, x1 = 0.6512 | 943.52 ± 0.25 | 1308.9 ± 1.5 | 0.7183 ± 0.0062
293.15 K, x1 = 0.7205 | 943.58 ± 0.25 | 1286.3 ± 1.5 | 0.691 ± 0.006
293.15 K, x1 = 0.7845 | 943.59 ± 0.25 | 1266 ± 1.4 | 0.6666 ± 0.0058
293.15 K, x1 = 0.8558 | 943.54 ± 0.25 | 1243.5 ± 1.4 | 0.6409 ± 0.0056
293.15 K, x1 = 0.9281 | 943.46 ± 0.25 | 1221.3 ± 1.4 | 0.6153 ± 0.0054
293.15 K, x1 = 1 | 943.37 ± 0.25 | 1200.5 ± 1.4 | 0.5903 ± 0.0053
298.15 K, x1 = 0.0714 | 936.89 ± 0.27 | 1448.2 ± 1.6 | 0.9087 ± 0.0077
298.15 K, x1 = 0.144 | 937.25 ± 0.27 | 1433.9 ± 1.6 | 0.8736 ± 0.0074
298.15 K, x1 = 0.2125 | 937.54 ± 0.27 | 1418.5 ± 1.6 | 0.8414 ± 0.0072
298.15 K, x1 = 0.2823 | 937.79 ± 0.26 | 1400.8 ± 1.5 | 0.8102 ± 0.0069
298.15 K, x1 = 0.3568 | 937.99 ± 0.26 | 1381 ± 1.5 | 0.7782 ± 0.0067
298.15 K, x1 = 0.4318 | 938.14 ± 0.26 | 1359.8 ± 1.5 | 0.7473 ± 0.0064
298.15 K, x1 = 0.5046 | 938.25 ± 0.26 | 1338 ± 1.5 | 0.7186 ± 0.0062
298.15 K, x1 = 0.5769 | 938.31 ± 0.26 | 1315.4 ± 1.5 | 0.6915 ± 0.006
298.15 K, x1 = 0.6512 | 938.31 ± 0.26 | 1291.5 ± 1.5 | 0.665 ± 0.0058
298.15 K, x1 = 0.7205 | 938.28 ± 0.26 | 1269.3 ± 1.4 | 0.6416 ± 0.0056
298.15 K, x1 = 0.7845 | 938.21 ± 0.26 | 1248.9 ± 1.4 | 0.6207 ± 0.0055
298.15 K, x1 = 0.8558 | 938.05 ± 0.26 | 1226.9 ± 1.4 | 0.5983 ± 0.0053
298.15 K, x1 = 0.9281 | 937.85 ± 0.26 | 1204.6 ± 1.4 | 0.5763 ± 0.0052
298.15 K, x1 = 1 | 937.63 ± 0.25 | 1183.6 ± 1.4 | 0.5544 ± 0.005
303.15 K, x1 = 0.0714 | 932.33 ± 0.28 | 1429.5 ± 1.6 | 0.8475 ± 0.0072
303.15 K, x1 = 0.144 | 932.63 ± 0.28 | 1415.5 ± 1.6 | 0.8152 ± 0.007
303.15 K, x1 = 0.2125 | 932.85 ± 0.28 | 1400.7 ± 1.6 | 0.7858 ± 0.0067
303.15 K, x1 = 0.2823 | 933.03 ± 0.27 | 1383.5 ± 1.5 | 0.7573 ± 0.0065
303.15 K, x1 = 0.3568 | 933.14 ± 0.27 | 1363.9 ± 1.5 | 0.7278 ± 0.0063
303.15 K, x1 = 0.4318 | 933.2 ± 0.27 | 1342.9 ± 1.5 | 0.6995 ± 0.0061
303.15 K, x1 = 0.5046 | 933.22 ± 0.27 | 1321.2 ± 1.5 | 0.6733 ± 0.0059
303.15 K, x1 = 0.5769 | 933.19 ± 0.27 | 1298.9 ± 1.5 | 0.649 ± 0.0057
303.15 K, x1 = 0.6512 | 933.1 ± 0.27 | 1275.4 ± 1.4 | 0.6253 ± 0.0055
303.15 K, x1 = 0.7205 | 932.98 ± 0.27 | 1253.7 ± 1.4 | 0.6042 ± 0.0054
303.15 K, x1 = 0.7845 | 932.82 ± 0.27 | 1233.8 ± 1.4 | 0.5853 ± 0.0052
303.15 K, x1 = 0.8558 | 932.56 ± 0.27 | 1211.8 ± 1.4 | 0.565 ± 0.0051
303.15 K, x1 = 0.9281 | 932.24 ± 0.27 | 1189.9 ± 1.4 | 0.545 ± 0.0049
303.15 K, x1 = 1 | 931.89 ± 0.26 | 1168.5 ± 1.4 | 0.5251 ± 0.0048
308.15 K, x1 = 0.0714 | 927.77 ± 0.29 | 1409.8 ± 1.6 | 0.789 ± 0.0068
308.15 K, x1 = 0.144 | 928.01 ± 0.29 | 1396.4 ± 1.6 | 0.7601 ± 0.0066
308.15 K, x1 = 0.2125 | 928.16 ± 0.29 | 1382.1 ± 1.5 | 0.7332 ± 0.0064
308.15 K, x1 = 0.2823 | 928.26 ± 0.28 | 1365.2 ± 1.5 | 0.7071 ± 0.0062
308.15 K, x1 = 0.3568 | 928.29 ± 0.28 | 1345.7 ± 1.5 | 0.68 ± 0.006
308.15 K, x1 = 0.4318 | 928.26 ± 0.28 | 1324.8 ± 1.5 | 0.654 ± 0.0058
308.15 K, x1 = 0.5046 | 928.19 ± 0.28 | 1303.4 ± 1.5 | 0.6305 ± 0.0056
308.15 K, x1 = 0.5769 | 928.07 ± 0.28 | 1281.5 ± 1.5 | 0.6082 ± 0.0054
308.15 K, x1 = 0.6512 | 927.89 ± 0.28 | 1258.5 ± 1.4 | 0.5867 ± 0.0053
308.15 K, x1 = 0.7205 | 927.68 ± 0.28 | 1237.5 ± 1.4 | 0.5678 ± 0.0051
308.15 K, x1 = 0.7845 | 927.43 ± 0.28 | 1217.7 ± 1.4 | 0.5507 ± 0.005
308.15 K, x1 = 0.8558 | 927.07 ± 0.28 | 1196.1 ± 1.4 | 0.5325 ± 0.0048
308.15 K, x1 = 0.9281 | 926.63 ± 0.27 | 1174.2 ± 1.4 | 0.514 ± 0.0047
308.15 K, x1 = 1 | 926.15 ± 0.27 | 1152.6 ± 1.3 | 0.496 ± 0.0046
313.15 K, x1 = 0.0714 | 923.21 ± 0.3 | 1392.2 ± 1.5 | 0.743 ± 0.0064
313.15 K, x1 = 0.144 | 923.38 ± 0.3 | 1379.6 ± 1.5 | 0.7165 ± 0.0062
313.15 K, x1 = 0.2125 | 923.46 ± 0.29 | 1365.5 ± 1.5 | 0.6916 ± 0.0061
313.15 K, x1 = 0.2823 | 923.49 ± 0.29 | 1348.6 ± 1.5 | 0.6671 ± 0.0059
313.15 K, x1 = 0.3568 | 923.44 ± 0.29 | 1328.3 ± 1.5 | 0.6422 ± 0.0057
313.15 K, x1 = 0.4318 | 923.32 ± 0.29 | 1306.9 ± 1.5 | 0.6183 ± 0.0055
313.15 K, x1 = 0.5046 | 923.16 ± 0.29 | 1285.6 ± 1.5 | 0.5963 ± 0.0053
313.15 K, x1 = 0.5769 | 922.95 ± 0.29 | 1263.9 ± 1.4 | 0.5759 ± 0.0052
313.15 K, x1 = 0.6512 | 922.68 ± 0.29 | 1241.1 ± 1.4 | 0.5562 ± 0.005
313.15 K, x1 = 0.7205 | 922.38 ± 0.29 | 1220.1 ± 1.4 | 0.5387 ± 0.0049
313.15 K, x1 = 0.7845 | 922.04 ± 0.29 | 1200.9 ± 1.4 | 0.523 ± 0.0048
313.15 K, x1 = 0.8558 | 921.57 ± 0.29 | 1179 ± 1.4 | 0.506 ± 0.0047
313.15 K, x1 = 0.9281 | 921.01 ± 0.28 | 1157.2 ± 1.4 | 0.4891 ± 0.0045
313.15 K, x1 = 1 | 920.41 ± 0.28 | 1135.4 ± 1.3 | 0.4723 ± 0.0044
318.15 K, x1 = 0.0714 | 918.65 ± 0.31 | 1374.5 ± 1.5 | 0.7095 ± 0.0062
318.15 K, x1 = 0.144 | 918.75 ± 0.31 | 1362.8 ± 1.5 | 0.6842 ± 0.006
318.15 K, x1 = 0.2125 | 918.76 ± 0.3 | 1348.2 ± 1.5 | 0.6607 ± 0.0058
318.15 K, x1 = 0.2823 | 918.72 ± 0.3 | 1330.9 ± 1.5 | 0.6374 ± 0.0057
318.15 K, x1 = 0.3568 | 918.59 ± 0.3 | 1310.1 ± 1.5 | 0.6135 ± 0.0055
318.15 K, x1 = 0.4318 | 918.38 ± 0.3 | 1288.6 ± 1.5 | 0.5905 ± 0.0053
318.15 K, x1 = 0.5046 | 918.13 ± 0.3 | 1267.2 ± 1.4 | 0.5693 ± 0.0051
318.15 K, x1 = 0.5769 | 917.83 ± 0.3 | 1245.9 ± 1.4 | 0.5497 ± 0.005
318.15 K, x1 = 0.6512 | 917.47 ± 0.3 | 1223.7 ± 1.4 | 0.5307 ± 0.0048
318.15 K, x1 = 0.7205 | 917.08 ± 0.3 | 1202.8 ± 1.4 | 0.5141 ± 0.0047
318.15 K, x1 = 0.7845 | 916.65 ± 0.3 | 1184 ± 1.4 | 0.4991 ± 0.0046
318.15 K, x1 = 0.8558 | 916.07 ± 0.29 | 1162.4 ± 1.4 | 0.4828 ± 0.0045
318.15 K, x1 = 0.9281 | 915.39 ± 0.29 | 1140.2 ± 1.3 | 0.4662 ± 0.0044
318.15 K, x1 = 1 | 914.66 ± 0.29 | 1118.3 ± 1.3 | 0.4499 ± 0.0042
